Data on nine compounds can be found in patent publication US20040143007A1, “Malononitrile compounds and their use as pesticides” (priority 2001, published 2004).

Type in all cases: in vivo
Assay [1] relates to Blattalla germanica (German cockroach). As to the kind of experiment: Pesticidal test against Blattalla germanica, treated filter paper with sucrose bait (Test Example 6). The following applies: Blattella germanica, 144 h; active ingredient 500 ppm, 0.7 ml on filter paper; two male adults; after 6 days. From the text: Two male adults of Blattalla germanica (German cockroach) were set free in the polyethylene cup, which was then kept covered. After 6 days, their survival was examined to determine the mortality.

Assay [2] relates to Diabrotica undecimpunctata (southern corn rootworm). As to the kind of experiment: Pesticidal test against Diabrotica undecimpunctata, filter paper with corn seed and eggs (Test Example 4). The following applies: active ingredient 50 ppm, 1 ml on filter paper, 30 to 50 eggs, 25° C. The protocol:
One germinated seed of corn and 30 to 50 eggs of Diabrotica undecimpunctata (southern corn rootworm) was placed on the filter paper in the polyethylene cup, which was then kept covered and left in a room at 25° C. On the 6th day after, the number of surviving larvae of Diabrotica undecimpunctata was examined.

The test system of assay [3] is Culex pipiens pallens (common mosquito). As to the kind of experiment: Pesticidal test against Culex pipiens pallens, larvae in treated water (Test Example 7). The following applies: 24 h, 0.7 ml of 500 ppm test liquid in 100 ml water (active ingredient 3.5 ppm), twenty final-instar larvae, after 1 days.
Description: In 100 ml of ion-exchanged water, the test liquid had been prepared as described above, was added dropwise in an amount of 0.7 ml (the concentration of active ingredient was 3.5 ppm). Twenty final-instar larvae of Culex pipiens pallens (common mosquito) were set free in the solution. After 1 days, their survival was examined to determine the mortality.
Assay [4] has as its system Musca domestics (house fly). The experiment in a line: Pesticidal test against Musca domestics, treated filter paper with sucrose bait (Test Example 5). Conditions: active ingredient 500 ppm, 0.7 ml on filter paper, ten female adults, after 24 hours. The protocol:
Ten female adults of Musca domestics (house fly) were set free in the polyethylene cup, which was then kept covered. After 24 hours, their survival was examined to determine the mortality.

What is called mortality is the share of the test organisms that died. A lower mortality goes with a weak lethal effect.

The compound `N#CC(C#N)(Cc1ccc(Cl)cc1)CC1CC1` [Compound 1, 2-(4-chlorobenzyl)-2-(cyclopropylmethyl)malononitrile] had a mortality at 500 ppm in assay [1] of 100%. Also, the “number of surviving pests on the 6th day after” value in assay [2] came to 0. In assay [3], the mortality at 3.5 µg/mL worked out at 100%.

On to `N#CC(C#N)(Cc1ccc(OC(F)(F)F)cc1)CC1CC1` [Compound 2, 2-(cyclopropylmethyl)-2-(4-(trifluoromethoxy)benzyl)malononitrile], for which the mortality at 500 ppm in assay [1] and in assay [4] was 100% throughout. For the same compound, the “number of surviving pests on the 6th day after” value in assay [2] is listed as 0. In assay [3], this compound registered a mortality at 3.5 µg/mL of 100%.

`N#CC(C#N)(Cc1ccc(OC(F)(F)F)cc1)CC1CCC1` [Compound 3, 2-(cyclobutylmethyl)-2-(4-(trifluoromethoxy)benzyl)malononitrile] had a mortality at 3.5 µg/mL in assay [3] of 100%. For the same compound, in assay [4], the mortality at 500 ppm was 100%.

Regarding `N#CC(C#N)(Cc1ccc(SC(F)(F)F)cc1)CC1CCC1` [Compound 4, 2-(cyclobutylmethyl)-2-(4-(trifluoromethylthio)benzyl)malononitrile], the mortality at 500 ppm in assay [1] and in assay [4] was 100% in each case. This compound also had a mortality at 3.5 µg/mL in assay [3] of 100%.

The compound `N#CC(C#N)(Cc1ccc(OC(F)(F)F)cc1)CC1CC1(Cl)Cl` (stereo not drawn) [Compound 5, 2-((2,2-dichlorocyclopropyl)methyl)-2-(4-(trifluoromethoxy)benzyl)malononitrile] registered a mortality at 3.5 µg/mL in assay [3] of 100%. The same compound displayed a mortality at 500 ppm in assay [4] of 100%.

With `N#CC(C#N)(Cc1ccc(C(F)(F)F)cc1)CC1CC1` [Compound 6, 2-(cyclopropylmethyl)-2-(4-(trifluoromethyl)benzyl)malononitrile], the mortality at 500 ppm in assay [1] and in assay [4] was 100% in each case. This compound also yielded a mortality at 3.5 µg/mL in assay [3] of 100%.

In the case of `N#CC(C#N)(Cc1ccc(C(F)(F)F)cc1)CC1CCC1` [Compound 7, 2-(cyclobutylmethyl)-2-(4-(trifluoromethyl)benzyl)malononitrile], the mortality at 500 ppm in assay [1] and in assay [4] was 100% throughout. This compound also returned a mortality at 3.5 µg/mL in assay [3] of 100%.

Turning to `N#Cc1ccc(CC(C#N)(C#N)CC2CC2(Cl)Cl)cc1` (stereo not drawn) [Compound 9, 2-(4-cyanobenzyl)-2-((2,2-dichlorocyclopropyl)methyl)malononitrile], the mortality at 3.5 µg/mL in assay [3] was found to be 100%.

In the case of `N#CC(C#N)(Cc1ccc(C(F)(F)F)cc1)CC1CC1(Cl)Cl` (stereo not drawn) [Compound 10, 2-((2,2-dichlorocyclopropyl)methyl)-2-(4-(trifluoromethyl)benzyl)malononitrile], the mortality at 500 ppm in assay [1] and in assay [4] was 100% each time. In assay [3], this compound returned a mortality at 3.5 µg/mL of 100%.
